{"source": "patent US6864217B2", "about": "“Herbicidal compositions with substituted phenylsulfonylureas for controlling weeds in rice” (Hoechst Schering AgrEvo GmbH, priority 1998, dated 2005)", "key": {"Cyperus serotinus [1]": {"system": "Cyperus serotinus", "test": "Table 19 field trial, treatment at the 2 leaf stage: weed control", "type": "in vivo", "conditions": "14 days after application", "description": "Field trial: Treatment at the 2 leaf stage, evaluation 14 days after the application."}, "Oryza sativa [2]": {"system": "Oryza sativa", "test": "Table 24 field trial, treatment by the pre-emergence method: rice damage", "type": "in vivo", "conditions": "field trial, pre-emergence method, 53 days after application", "description": "Field trial: Treatment by the pre-emergence method, evaluation 53 days after the application."}, "Echinochloa crusgalli [3]": {"system": "Echinochloa crusgalli", "test": "Table 18 field trial, treatment at the 1-2 leaf stage: weed control", "type": "in vivo", "conditions": "14 days after application", "description": "(§1) Field trial: Treatment at the 1-2 leaf stage, evaluation 14 days after the application."}, "Echinochloa crusgalli [4]": {"system": "Echinochloa crusgalli", "test": "Table 9 greenhouse trial, treatment at the 1-2 leaf stage: weed control", "type": "in vivo", "conditions": "22 days after application", "description": "(§2) Seeds or rhizome pieces of mono- and dicotyledonous weed plants are placed into sandy loam soil in plastic pots, covered with soil and grown in a greenhouse under good growth conditions (temperature, atmospheric humidity, water supply). Weeds which are encountered in the cultivation of rice are cultivated in pots in which the water level is up to 2 cm over the soil surface. Three weeks after sowing, the test plants are treated at the three-leaf stage. The active compound combinations according to the invention, formulated as wettable powders or emulsion concentrates, and, in parallel experiments, the correspondingly formulated individual active compounds are sprayed onto the green parts of the plants at different dosages using an amount of water of 300 to 600 l/ha (converted), and, after about 3 to 4 weeks of the test plants in the greenhouse under optimum growth conditions (temperature, atmospheric humidity, water supply), the effect of the preparations is evaluated visually in comparison to untreated controls. In the case of rice or weeds which are encountered in the cultivation of rice, the active compounds are also added directly to the water for irrigation (application analogous to the so-called granules application) or sprayed onto plants and added to the water for irrigation. The experiments were designed with several, up to five, repetitions. The herbicidal compositions according to the invention also have good herbicidal post-emergence activity against a broad spectrum of economically important weed grasses and broad-leaved weeds.\nGreenhouse trial: Treatment at the 1-2 leaf stage, evaluation 22 days after the application."}, "Cyperus irria": {"system": "Cyperus irria", "test": "Table 3 field trial, treatment at the 2 leaf stage weed grasses: weed control", "type": "in vivo", "conditions": "28 days after application", "protocol": "(§6) The examples mentioned below were carried out in the greenhouse, and in some instances, in field trials."}, "Oryza sativa [5]": {"system": "Oryza sativa", "test": "Table 3 field trial, treatment at the 4-5 leaf stage (seed rice): rice damage", "conditions": "28 days after application", "protocol": "as §6"}, "ECHCO": {"system": "ECHCO", "test": "Table 2 field trial, treatment at the 2-3 leaf stage weed grasses: weed control", "type": "in vivo, Echinochloa colona", "conditions": "28 days after application", "protocol": "as §6"}, "Oryza sativa [6]": {"system": "Oryza sativa", "test": "Table 20 field trial, treatment at the 4-6 leaf stage: rice damage", "type": "in vivo", "conditions": "2.5 g of ai/ha, 28 days after application", "description": "(§3) Field trial: Treatment at the 4-6 leaf stage, evaluation 28 days after the application."}, "Oryza sativa [7]": {"system": "Oryza sativa", "test": "Table 2a field trial, treatment at the 1-2 leaf stage rice: rice damage", "conditions": "28 days after application", "protocol": "as §6"}, "Commelina benghalensis": {"system": "Commelina benghalensis", "test": "Table 26 field trial, treatment at the 3 leaf stage: weed control", "type": "in vivo", "conditions": "33 days after application", "description": "(§4) Field trial: Treatment at the 3 leaf stage, evaluation 33 days after the application."}, "Ipomoea hederacea": {"system": "Ipomoea hederacea", "test": "Table 20 field trial, treatment at the 4-6 leaf stage: weed control", "type": "in vivo", "conditions": "2.5 g of ai/ha, 28 days after application", "description": "as §3"}, "Scirpus juncoides": {"system": "Scirpus juncoides", "test": "Table 10 greenhouse trial, treatment at the 1-2 leaf stage: weed control", "type": "in vivo", "conditions": "20 days after application", "description": "as §2\n(§5) Greenhouse trial: Treatment at the 1-2 leaf stage, evaluation 20 days after the application."}, "Cyperus serotinus [8]": {"system": "Cyperus serotinus", "test": "Table 12 greenhouse trial, treatment at the 1-2 leaf stage: weed control", "type": "in vivo", "conditions": "20 days after application", "description": "as §2, §5"}, "Echinochloa crusgalli [9]": {"system": "Echinochloa crusgalli", "test": "Table 6 field trial, treatment at the 1-2 leaf stage: weed control", "type": "in vivo", "conditions": "2 g of ai/ha, 28 days after application", "protocol": "as §6"}, "Oryza sativa [10]": {"system": "Oryza sativa", "test": "Table 15 greenhouse trial, treatment at the 2-3 leaf stage: rice damage", "type": "in vivo", "conditions": "20 days after application", "description": "as §2"}, "Echinochloa crusgalli [11]": {"system": "Echinochloa crusgalli", "test": "Table 8 greenhouse trial, treatment at the 1-2 leaf stage: weed control", "type": "in vivo", "conditions": "22 days after application", "description": "as §2, with “Three weeks after sowing, the test plants are treated at the three-leaf stage.” left out"}, "Oryza sativa [12]": {"system": "Oryza sativa", "test": "Table 2 field trial, treatment at the 1-2 leaf stage rice: rice damage", "conditions": "28 days after application", "protocol": "as §6"}, "Sagittaria pygmaea": {"system": "Sagittaria pygmaea", "test": "Table 13 greenhouse trial, treatment at the 5-6 leaf stage: weed control", "type": "in vivo", "conditions": "20 days after application", "description": "as §2\nGreenhouse trial: Treatment at the 5-6 leaf stage, evaluation 20 days after the application."}, "Oryza sativa [13]": {"system": "Oryza sativa", "test": "Table 18 field trial, treatment at the 1-2 leaf stage: rice damage", "type": "in vivo", "conditions": "14 days after application", "description": "as §1"}, "Oryza sativa [14]": {"system": "Oryza sativa", "test": "Table 21 field trial, treatment at the 2 leaf stage: rice damage", "type": "in vivo", "conditions": "2.5 g of ai/ha; field trial, 28 days after application", "description": "Field trial: Treatment at the 2 leaf stage, evaluation 28 days after the application."}, "Oryza sativa [15]": {"system": "Oryza sativa", "test": "Table 26 field trial, treatment at the 3 leaf stage: rice damage", "type": "in vivo", "conditions": "33 days after application", "description": "as §4"}}, "note": "Structures can show the parent of a compound that is named as a salt.", "data": [{"smiles": "COC(=O)c1ccc(I)cc1S(=O)(=O)NC(=O)Nc1nc(C)nc(OC)n1", "note": "[A1*), Sodium salt of methyl 4-iodo-2-[3-(4-methoxy-6-methyl-1,3,5-triazin-2-yl)ureidosulfonyl]benzoate]", "values": [{"measurement": "CYPSE % control", "setting": "Cyperus serotinus [1]; 1.5 g of ai/ha", "result": 10, "unit": "%"}, {"measurement": "CYPSE % control", "setting": "Cyperus serotinus [1]; 3 g of ai/ha", "result": 30, "unit": "%"}, {"measurement": "ORYSW % damage", "setting": "Oryza sativa [2]; 2.5 g of ai/ha", "result": 0, "unit": "%"}, {"measurement": "ORYSW % damage", "setting": "Oryza sativa [2]; 5 g of ai/ha", "result": 0, "unit": "%"}, {"measurement": "ECHCG % control", "setting": "Echinochloa crusgalli [3]; 1 g of ai/ha", "result": 5, "unit": "%"}, {"measurement": "ECHCG % control", "setting": "Echinochloa crusgalli [3]; 2 g of ai/ha", "result": 25, "unit": "%"}, {"measurement": "ECHCG % control", "setting": "Echinochloa crusgalli [4]; 1.5 g of ai/ha", "result": 40, "unit": "%"}, {"measurement": "ECHCG % control", "setting": "Echinochloa crusgalli [4]; 3 g of ai/ha", "result": 60, "unit": "%"}, {"measurement": "CYPIR % control", "setting": "Cyperus irria; 0.75 g of ai/ha", "result": 40, "unit": "%"}, {"measurement": "CYPIR % control", "setting": "Cyperus irria; 1.5 g of ai/ha", "result": 67, "unit": "%"}, {"measurement": "CYPIR % control", "setting": "Cyperus irria; 2.5 g of ai/ha", "result": 87, "unit": "%"}, {"measurement": "ORYSW % damage", "setting": "Oryza sativa [5]; 0.75 g of ai/ha", "result": 0, "unit": "%"}, {"measurement": "ORYSW % damage", "setting": "Oryza sativa [5]; 1.5 g of ai/ha", "result": 0, "unit": "%"}, {"measurement": "ORYSW % damage", "setting": "Oryza sativa [5]; 2.5 g of ai/ha", "result": 0, "unit": "%"}, {"measurement": "ECHCO % control", "setting": "ECHCO; 1.25 g of ai/ha", "result": 0, "unit": "%"}, {"measurement": "ECHCO % control", "setting": "ECHCO; 2.5 g of ai/ha", "result": 35, "unit": "%"}, {"measurement": "ECHCO % control", "setting": "ECHCO; 5 g of ai/ha", "result": 37, "unit": "%"}, {"measurement": "ORYSW % damage", "setting": "Oryza sativa [6]", "result": 8, "unit": "%"}, {"measurement": "ORYSW % damage", "setting": "Oryza sativa [7]; 1.25 g of ai/ha", "result": 10, "unit": "%"}, {"measurement": "ORYSW % damage", "setting": "Oryza sativa [7]; 2.5 g of ai/ha", "result": 25, "unit": "%"}, {"measurement": "ORYSW % damage", "setting": "Oryza sativa [7]; 5 g of ai/ha", "result": 25, "unit": "%"}, {"measurement": "COMBE % control", "setting": "Commelina benghalensis; 2.5 g of ai/ha", "result": 47, "unit": "%"}, {"measurement": "COMBE % control", "setting": "Commelina benghalensis; 5 g of ai/ha", "result": 67, "unit": "%"}, {"measurement": "IPOHE % control", "setting": "Ipomoea hederacea", "result": 30, "unit": "%"}, {"measurement": "SCIJU % control", "setting": "Scirpus juncoides; 1.5 g of ai/ha", "result": 40, "unit": "%"}, {"measurement": "SCIJU % control", "setting": "Scirpus juncoides; 3 g of ai/ha", "result": 40, "unit": "%"}, {"measurement": "CYPSE % control", "setting": "Cyperus serotinus [8]; 1.5 g of ai/ha", "result": 10, "unit": "%"}, {"measurement": "CYPSE % control", "setting": "Cyperus serotinus [8]; 3 g of ai/ha", "result": 30, "unit": "%"}, {"measurement": "ECHCG % control", "setting": "Echinochloa crusgalli [9]", "result": 10, "unit": "%"}, {"measurement": "ORYSW % damage", "setting": "Oryza sativa [10]; 1.25 g of ai/ha", "result": 5, "unit": "%"}, {"measurement": "ORYSW % damage", "setting": "Oryza sativa [10]; 2.5 g of ai/ha", "result": 10, "unit": "%"}, {"measurement": "ORYSW % damage", "setting": "Oryza sativa [10]; 5 g of ai/ha", "result": 10, "unit": "%"}, {"measurement": "ECHCG % control", "setting": "Echinochloa crusgalli [11]; 1.5 g of ai/ha", "result": 40, "unit": "%"}, {"measurement": "ECHCG % control", "setting": "Echinochloa crusgalli [11]; 3 g of ai/ha", "result": 60, "unit": "%"}, {"measurement": "ORYSW % damage", "setting": "Oryza sativa [12]; 1.25 g of ai/ha", "result": 10, "unit": "%"}, {"measurement": "ORYSW % damage", "setting": "Oryza sativa [12]; 2.5 g of ai/ha", "result": 25, "unit": "%"}, {"measurement": "ORYSW % damage", "setting": "Oryza sativa [12]; 5 g of ai/ha", "result": 25, "unit": "%"}, {"measurement": "SAGPY % control", "setting": "Sagittaria pygmaea; 1.5 g of ai/ha", "result": 30, "unit": "%"}, {"measurement": "SAGPY % control", "setting": "Sagittaria pygmaea; 3 g of ai/ha", "result": 50, "unit": "%"}, {"measurement": "ORYSW % damage", "setting": "Oryza sativa [13]; 1 g of ai/ha", "result": 7, "unit": "%"}, {"measurement": "ORYSW % damage", "setting": "Oryza sativa [13]; 2 g of ai/ha", "result": 12, "unit": "%"}, {"measurement": "ORYSW % damage", "setting": "Oryza sativa [14]", "result": 8, "unit": "%"}, {"measurement": "ORYSW % damage", "setting": "Oryza sativa [15]; 2.5 g of ai/ha", "result": 0, "unit": "%"}, {"measurement": "ORYSW % damage", "setting": "Oryza sativa [15]; 5 g of ai/ha", "result": 0, "unit": "%"}]}]}
